Measured values: patent US20210214358A1, “CDK4/6 INHIBITOR AND PHARMACEUTICALLY ACCEPTABLE SALT AND POLYMORPH THEREOF AND USE THEREOF” (SHANGHAI HAIYAN PHARMACEUTICAL TECHNOLOGY CO., LTD., priority 2018, published 2021)
In brackets after ≈: the same amount, converted by molar mass. Like-named read-outs stand apart in the source and are kept apart here.

How the values were obtained:
[1] = Solubility experiment; assay type: physicochemical; details: for solubility in aqueous medium (summary): aqueous media of Table 6
[2] = Hygroscopicity test (DVS); assay type: physicochemical; details: for hygroscopicity (in words): 80% RH at 25° C.; for hygroscopic weight gain: humidity increases to 80% RH at 25° C.
Procedure: The Dynamic Vapor Sorption (DVS) curve: acquired on the DVS Intrinsic of Surface Measurement Systems. The relative humidity at […] is corrected with the deliquescence points of LiCl, Mg (NO3)2 and KCl.

[3] = Stability experiment: content and related substance by HPLC; assay type: physicochemical
Procedure: (§1) 1. Stability experiment of crystal form A and crystal form B-1 • (A) An appropriate amount of samples were weighed respectively and placed open at room temperature and under accelerated conditions (40° C./75% RH), on day 0, 7, 14, and 28 • (B) Crystal form A was placed in an oven at 60° C., on day 14, 32.
(§2) The content and related substance changes were detected by HPLC, and XRD was measured at the same time to investigate stability of the crystal forms.

[4] = Stability experiment: crystal form by XRD; assay type: physicochemical
Procedure: as §1, §2

[5] = Thermogravimetric analysis; assay type: physicochemical; details: under 50° C.-90° C.
Text: TGA and DSC pattern: TGA and DSC pattern were collected on TA Q500/5000 thermogravimetric analyzer and TA Q200/2000 differential scanning calorimeter respectively.

[6] = target: T1, CDK1 (Homo sapiens, UniProt P06493); test: Kinase test in vitro (LANCE Ultra, Ulight-4EBP1); assay type: biochemical
T1 construct: purchased BPS
Text: (§3) Recombinant CDK1, CCNB1 and CDK9, and CCNT were purchased from BPS; CDK2, CCNA1, CDK4, CCND1 and CDK6, and CCND1 were purchased from Invitrogen; CDK4, CycD3 and CDK6, and CycD3 were purchased from Carna. Adenosine triphosphate (ATP) was purchased from Life tech. Substrate Ulight-4EBP1 and the corresponding detection antibody were purchased from Perkinelmer. LANCE Ultra system from Perkinelmer is used as the detection system.
(§4) In the kinase test, a compound to be tested was 1:3 diluted for 8 gradient points and added into a reaction plate, and then an appropriate amount of recombinase was added. A buffer [50 mM HEPES pH7.5, 10 mM MgCl2, 3 mM MnCl2, 1 mM EGTA, 0.01% Tween-20, 1 mM TCEP] containing ATP, Ulight-4EBP1 premix at a predetermined concentration was subsequently added, and the kinase reaction began at room temperature. A test solution pre-mixed with 10 mM EDTA and detection antibody was added after a suitable reaction time, and then the fluorescence value was read on Tecan infinite pro after reacting for 1 hour at room temperature. The IC50 was calculated using a four-factor model fitting in a XLfit software.

[7] = target: T2, CDK2 (Homo sapiens, UniProt P24941); test: Kinase test in vitro (LANCE Ultra, Ulight-4EBP1); assay type: biochemical
T2 construct: purchased Invitrogen
Text: as §3, §4

[8] = target: T3, CDK4 (Homo sapiens, UniProt P11802); test: Kinase test in vitro (LANCE Ultra, Ulight-4EBP1); assay type: biochemical
T3 construct: purchased Invitrogen or Carna
Text: as §3, §4

[9] = target: T4, CDK6 (Homo sapiens, UniProt Q00534); test: Kinase test in vitro (LANCE Ultra, Ulight-4EBP1); assay type: biochemical
T4 construct: purchased Invitrogen or Carna
Text: as §3, §4

[10] = Acetone, calculated for crystal form I
[11] = Acetonitrile, calculated for crystal form I
[12] = Ethanol, calculated for crystal form I
[13] = Ethyl acetate, calculated for crystal form I
[14] = H2O, calculated for crystal form I
[15] = Isopropanol, calculated for crystal form I
[16] = Methanol, calculated for crystal form I
[17] = Tetrahydrofuran, calculated for crystal form I
[18] = medium pH4.5, calculated for crystal form I
[19] = medium pH6.8, calculated for crystal form I
[20] = medium pH7.4, calculated for crystal form I
[21] = accelerated conditions 40° C./75% RH, open, on day 7
[22] = accelerated conditions 40° C./75% RH, open, on day 14
[23] = accelerated conditions 40° C./75% RH, open, on day 28
[24] = accelerated conditions 40° C./75% RH, open, on day 28, footnote: content obviously higher, measurement has errors
[25] = room temperature and accelerated conditions (40° C./75% RH), up to 28 days
[26] = room temperature, open, on day 7
[27] = room temperature, open, on day 14
[28] = room temperature, open, on day 28
[29] = room temperature, open, on day 28, footnote: content obviously higher, measurement has errors
[30] = accelerated conditions for 28 days
[31] = 0.1 M HCl, calculated for crystal form I

T1 sequence (P06493 whole entry): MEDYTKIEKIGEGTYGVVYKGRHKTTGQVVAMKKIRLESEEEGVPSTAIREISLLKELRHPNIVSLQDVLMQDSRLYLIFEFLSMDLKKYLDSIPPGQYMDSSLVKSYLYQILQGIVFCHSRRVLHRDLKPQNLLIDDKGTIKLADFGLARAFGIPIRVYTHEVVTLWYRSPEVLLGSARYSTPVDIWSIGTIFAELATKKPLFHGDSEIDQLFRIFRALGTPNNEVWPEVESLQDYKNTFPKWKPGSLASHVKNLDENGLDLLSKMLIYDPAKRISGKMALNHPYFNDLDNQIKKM
T1 sequence (P14635 whole entry partner): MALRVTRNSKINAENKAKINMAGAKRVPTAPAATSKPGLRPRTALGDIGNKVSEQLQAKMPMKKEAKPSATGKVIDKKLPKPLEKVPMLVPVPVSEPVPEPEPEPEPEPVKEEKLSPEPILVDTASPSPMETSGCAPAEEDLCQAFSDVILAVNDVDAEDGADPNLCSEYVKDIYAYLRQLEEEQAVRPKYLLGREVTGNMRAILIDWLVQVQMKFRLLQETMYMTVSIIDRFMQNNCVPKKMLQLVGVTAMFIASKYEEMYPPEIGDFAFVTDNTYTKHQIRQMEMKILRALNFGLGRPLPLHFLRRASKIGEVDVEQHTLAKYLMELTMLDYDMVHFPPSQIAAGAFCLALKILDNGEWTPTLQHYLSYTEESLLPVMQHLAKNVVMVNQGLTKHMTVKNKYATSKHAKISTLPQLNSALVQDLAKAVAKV
T4 sequence (Q00534 whole entry): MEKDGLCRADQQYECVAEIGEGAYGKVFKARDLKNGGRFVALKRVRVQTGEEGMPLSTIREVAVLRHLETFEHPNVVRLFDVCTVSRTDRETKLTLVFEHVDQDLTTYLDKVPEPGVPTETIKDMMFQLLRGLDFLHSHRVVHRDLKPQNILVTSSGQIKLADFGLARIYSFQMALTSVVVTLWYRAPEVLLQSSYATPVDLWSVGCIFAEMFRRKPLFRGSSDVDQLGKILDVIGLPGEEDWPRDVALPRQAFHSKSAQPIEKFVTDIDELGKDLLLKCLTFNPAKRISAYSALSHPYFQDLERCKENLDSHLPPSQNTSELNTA
T4 sequence (P24385 whole entry partner): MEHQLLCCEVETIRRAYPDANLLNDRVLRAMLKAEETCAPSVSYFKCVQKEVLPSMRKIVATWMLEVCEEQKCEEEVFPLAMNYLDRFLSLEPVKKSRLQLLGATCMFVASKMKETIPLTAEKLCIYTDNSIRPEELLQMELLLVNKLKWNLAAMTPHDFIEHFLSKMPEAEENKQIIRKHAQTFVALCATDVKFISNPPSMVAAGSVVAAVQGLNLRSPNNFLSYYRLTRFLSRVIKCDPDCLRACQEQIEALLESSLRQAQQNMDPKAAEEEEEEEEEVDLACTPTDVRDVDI
T3 sequence (P11802 whole entry): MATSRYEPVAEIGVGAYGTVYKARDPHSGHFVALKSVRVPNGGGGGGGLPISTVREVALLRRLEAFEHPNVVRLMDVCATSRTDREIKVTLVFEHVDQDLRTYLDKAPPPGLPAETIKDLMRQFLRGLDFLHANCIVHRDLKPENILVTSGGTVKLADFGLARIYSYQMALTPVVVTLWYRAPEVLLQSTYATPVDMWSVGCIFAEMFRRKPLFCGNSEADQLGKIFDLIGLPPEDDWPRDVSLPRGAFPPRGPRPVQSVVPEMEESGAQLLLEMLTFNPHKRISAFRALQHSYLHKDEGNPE
T3 sequence (P24385 whole entry partner): as the sequence (P24385 whole entry partner) above

| Structure (SMILES) | solubility ranking of the crystal forms (in words) [1] | Solubility [1, 10] | Solubility [1, 11] | Solubility [1, 12] | Solubility [1, 13] | Solubility [1, 14] | Solubility [1, 15] | Solubility [1, 16] | Solubility [1, 17] | Solubility [1, 18] | Solubility [1, 19] | Solubility [1, 20] | hygroscopicity (in words) [2] | hygroscopic weight gain [2] | Content [3, 21] | Impurity peak [3, 21] | Content [3, 22] | Impurity peak [3, 22] | Impurity peak [3, 23] | Solubility [1, 31] | further results |
| --- | --- | --- | --- | --- | --- | --- | --- | --- | --- | --- | --- | --- | --- | --- | --- | --- | --- | --- | --- | --- | --- |
| CCN1CCN(Cc2ccc(Nc3ncc4c(n3)-c3c(nc(C5CC5)n3C(C)C)C4)nc2)CC1 [Crystal form I] | the lowest solubility | >5 mg/mL | >1 mg/mL | >50 mg/mL | >10 mg/mL | 0.36 mg/mL (≈ 0.785 mM) | >20 mg/mL | >100 mg/mL | >100 mg/mL | 9.66 mg/mL (≈ 21.1 mM) | 2.85 mg/mL (≈ 6.21 mM) | 1.08 mg/mL (≈ 2.35 mM) | has hygroscopicity | 8.84% |  |  |  |  |  |  | Solubility ([1]; 0.1 M HCl, simulated gastric fluid, thermodynamic from solid, 0.1 M HCl, calculated for crystal form I, read-out: Solubility): 34.7 mg/mL (≈ 75.7 mM); Solubility ([1]; 50% acetonitrile, aqueous with cosolvent or surfactant or cyclodextrin, thermodynamic from solid, 50% Acetonitrile, calculated for crystal form I, read-out: Solubility): > 25 mg/mL; Solubility ([1]; dimethyl sulfoxide, organic solvent or mixture, thermodynamic from solid, Dimethyl sulfoxide, calculated for crystal form I, read-out: Solubility): > 6.6 mg/mL; Solubility ([1]; methyl tert-butyl ether, organic solvent or mixture, thermodynamic from solid, Methyl tert-butyl ether, calculated for crystal form I, read-out: Solubility): > 2 mg/mL; Solubility ([1]; n-heptane, organic solvent or mixture, thermodynamic from solid, N-heptane, calculated for crystal form I, read-out: Solubility): < 2 mg/mL |
| CCN1CCN(Cc2ccc(Nc3ncc4c(n3)-c3c(nc(C5CC5)n3C(C)C)C4)nc2)CC1 [Crystal form B-1] |  | >41.11 mg/mL | 0.28 mg/mL (≈ 0.611 mM) | 19.59 mg/mL (≈ 42.7 mM) | 0.02 mg/mL (≈ 0.0436 mM) | >40.85 mg/mL | 0.58 mg/mL (≈ 1.26 mM) | >45.19 mg/mL | 0.39 mg/mL (≈ 0.85 mM) | >29.40 mg/mL | >27.40 mg/mL | >25.65 mg/mL | has hygroscopicity | 6.88% | 94.36% | none | 95.19% | none | none | >40.10 mg/mL | Content [3, 24]: 110.05%; Content ([3]; on day 0): 94.43%; Impurity peak ([3]; on day 0): none; chemical stability (in words) [3, 25]: chemical properties are stable; Content [3, 26]: 96.50%; Impurity peak [3, 26]: none; Content [3, 27]: 96.45%; Impurity peak [3, 27]: none; Impurity peak [3, 28]: none; Content [3, 29]: 107.12%; crystal form stability by XRD (in words) [4, 30]: crystal form is stable; solubility in aqueous medium (summary) [1]: more than 25 mg/ml; weight loss (TGA) [5]: about 7.4% |
| CCN1CCN(Cc2ccc(Nc3ncc4c(n3)-c3c(nc(C5CC5)n3C(C)C)C4)nc2)CC1 [Crystal form A] |  | 0.23 mg/mL (≈ 0.502 mM) | 0.22 mg/mL (≈ 0.48 mM) | 6.97 mg/mL (≈ 15.2 mM) | 0.03 mg/mL (≈ 0.0654 mM) | 11.59 mg/mL (≈ 25.3 mM) | 0.26 mg/mL (≈ 0.567 mM) | 41.04 mg/mL (≈ 89.5 mM) | 0.15 mg/mL (≈ 0.327 mM) | 14.30 mg/mL (≈ 31.2 mM) | 19.66 mg/mL (≈ 42.9 mM) | 17.86 mg/mL (≈ 38.9 mM) | slightly hygroscopic | 0.613% | 100.97% | none | 104.46% | none | none | >58.10 mg/mL | chemical stability (in words) ([3]; 60° C., 14 and 32 days): chemical properties are stable; Content [3, 24]: 113.75%; Content ([3]; on day 0): 103.14%; Impurity peak ([3]; on day 0): none; Content ([3]; oven at 60° C., on day 14): 106.2%; Impurity peak ([3]; oven at 60° C., on day 14): none; Content ([3]; oven at 60° C., on day 32): 104.5%; Impurity peak ([3]; oven at 60° C., on day 32): none; chemical stability (in words) [3, 25]: chemical properties are stable; Content [3, 26]: 103.82%; Impurity peak [3, 26]: none; Content [3, 27]: 104.20%; Impurity peak [3, 27]: none; Impurity peak [3, 28]: none; Content [3, 29]: 116.27%; crystal form stability by XRD (in words) [4, 30]: crystal form is stable; crystal form stability by XRD (in words) ([4]; high temperature of 60° C. for 14 days and 32 days): not transformed; solubility in aqueous medium (summary) [1]: more than 11 mg/ml |
| Cc1c2c(nn1C)CCc1cnc(Nc3ccc(N4CCN(C)CC4)cc3)nc1-2 [compound 1, reference compound] |  |  |  |  |  |  |  |  |  |  |  |  |  |  |  |  |  |  |  |  | IC50 [6]: 93 nM; inhibitory activity against CDK1 (in words) [6]: strong inhibitory activity; IC50 [7]: 23 nM; inhibitory activity against CDK2 (in words) [7]: strong inhibitory activity; IC50 [8]: 8 nM; inhibitory activity against CDK4 (in words) [8]: strong inhibitory activity; IC50 [9]: 53 nM; inhibitory activity against CDK6 (in words) [9]: strong inhibitory activity |
| CCN1CCN(Cc2ccc(Nc3ncc4c(n3)-c3c(nc(C5CC5)n3C(C)C)C4)nc2)CC1 [Crystal form K-1] | the best solubility | 11.47 mg/mL (≈ 25 mM) | >16.64 mg/mL | >41.86 mg/mL | 11.48 mg/mL (≈ 25 mM) | >38.91 mg/mL | >42.89 mg/mL | >30.41 mg/mL | 39.09 mg/mL (≈ 85.2 mM) | >35.09 mg/mL | >33.57 mg/mL | >38.78 mg/mL | very hygroscopic | 30.74% |  |  |  |  |  | >44.74 mg/mL | Solubility ([1]; thermodynamic from solid, all solvents and media of Table 6, read-out: solubility in organic solvents and aqueous medium (summary)): 11 to 45 mg/mL (≈ 24 to 98.1 mM) |
